Target: T1, SfruOR40/Orco (SfruOR40 co-expressed with SfruOrco) (Spodoptera frugiperda, UniProt A0A9R0D2T2)
T1 construct: gene LOC118267896; full-length ORF of SfruOR40 (395 residues); with Odorant receptor coreceptor
T1 sequence (A0A9R0D2T2 1-395): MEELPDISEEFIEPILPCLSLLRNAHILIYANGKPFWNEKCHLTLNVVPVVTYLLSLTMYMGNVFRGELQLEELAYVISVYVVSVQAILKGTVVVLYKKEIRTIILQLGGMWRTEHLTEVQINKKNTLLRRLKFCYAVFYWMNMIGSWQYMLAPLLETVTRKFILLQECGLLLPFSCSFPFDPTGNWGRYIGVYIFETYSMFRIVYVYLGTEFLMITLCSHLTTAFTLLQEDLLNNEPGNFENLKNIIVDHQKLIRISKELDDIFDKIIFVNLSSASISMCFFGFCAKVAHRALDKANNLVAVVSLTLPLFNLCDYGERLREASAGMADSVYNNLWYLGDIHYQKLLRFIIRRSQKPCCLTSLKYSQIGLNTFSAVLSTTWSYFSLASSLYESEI
T1 sequence (A0A9F1UC78 1-473 partner): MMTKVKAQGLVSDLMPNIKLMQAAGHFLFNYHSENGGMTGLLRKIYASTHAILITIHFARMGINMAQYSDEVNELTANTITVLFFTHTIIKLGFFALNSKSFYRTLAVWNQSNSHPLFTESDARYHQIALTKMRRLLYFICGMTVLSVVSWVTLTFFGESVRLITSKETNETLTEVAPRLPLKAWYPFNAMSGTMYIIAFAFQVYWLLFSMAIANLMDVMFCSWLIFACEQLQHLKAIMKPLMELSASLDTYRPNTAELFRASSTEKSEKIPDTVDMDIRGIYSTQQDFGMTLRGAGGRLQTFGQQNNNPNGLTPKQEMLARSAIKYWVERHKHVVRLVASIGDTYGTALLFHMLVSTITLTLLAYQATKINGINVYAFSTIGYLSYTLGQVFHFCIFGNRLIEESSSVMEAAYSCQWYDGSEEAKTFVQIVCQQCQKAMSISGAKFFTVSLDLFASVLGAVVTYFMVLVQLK
Assay: two-electrode voltage clamp, Xenopus oocytes
Format: cell-based
Settings: agonist, 10^-4 M odorant, -80 mV, Ringer's buffer pH 7.6, 0.1% DMSO, n = 7

| SMILES | mean current amplitude at 10^-4 M [nA] |
| --- | --- |
| C=C1CC[C@H]2O[C@]2(C)CC[C@@H]2[C@@H]1CC2(C)C [(−)-trans-Caryophyllene oxide] | 90 |
| C=C1CC/C=C(\C)CC[C@@H]2[C@@H]1CC2(C)C [(−)-trans-Caryophyllene] | 111 |
| C/C1=C\CC/C(C)=C/CC(C)(C)/C=C/C1 [α-Humulene] | 206 |

From PMC11354698, “Functional Characterization of an Odorant Receptor Expressed in Newly Hatched Larvae of Fall Armyworm Spodoptera frugiperda” (Insects, 2024)
